Patent US20220117957A1, “TREATMENT METHOD FOR CORONAVIRUS INFECTION” (priority 2020, published 2022)

Tests used:
[1] = organic solvents; water at acidic pH; cited from earlier work
SARS-CoV-2 = assay type: in vivo; details: individuals infected with SARS-CoV-2 treated with Rifampin

Q: Which results are given for CO[C@H]1/C=C/O[C@@]2(C)Oc3c(C)c(O)c4c(O)c(c(/C=N/N5CCN(C)CC5)c(O)c4c3C2=O)NC(=O)/C(C)=C\C=C\[C@H](C)[C@H](O)[C@@H](C)[C@@H](O)[C@@H](C)[C@H](OC(C)=O)[C@@H]1C [Rifampin]?
A: solubility [1]: soluble in organic solvents and in water at acidic pH; recovery times (SARS-CoV-2): much faster recovery times; severity of symptoms (SARS-CoV-2): less severe symptoms
